Values after ≈ are worked out from the molar mass of the structure shown. Where two headings read alike, the source gives them in different places.
Legend:
[1] = test system: fluconazole-resistant C. albicans strain Gu5; conditions: cited from earlier work
[2] = test system: fluconazole-susceptible C. albicans strain 90028; conditions: cited from earlier work
[3] = test system: NIH-3T3 mammalian fibroblasts; experiment: Counterscreen mammalian cell toxicity assay (fibroblast toxicity); assay type: cell-based, murine; conditions: for IC50: footnote: in the absence of fluconazole, read-out: Anti-target Potency (μM) Mean ± S.E.M Fibroblasts^b IC50
C. albicans CaCi-2 = experiment: Secondary single-agent (no-fluconazole) activity assay; assay type: cell-based, Candida albicans; conditions: Candida albicans, CACI2; in the absence of fluconazole; read-out: Target Potency (μM) Mean ± S.E.M CaCi-2^b IC50
How it was run: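 C. albicans CaCi-2 in RPMI synthetic defined medium with 1% Pen/Strep, starting OD600 0.00015, exposed to compound alone (no fluconazole) for 48 h at 37 °C without agitation. Growth read as Alamar Blue fluorescence (1:200 final) after 2 h at room temperature.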

PBS solubility = conditions: for solubility: aqueous buffer
Plasma stability = conditions: % remaining in human plasma after a 5-hour incubation
C. albicans CaCi-8 = experiment: microbe, parasite or virus in culture; assay type: cell-based, Candida albicans
How it was run: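 Hits tested for chemosensitization of the fluconazole-resistant CaCi-8 strain, for inherent antifungal activity without fluconazole, and for mammalian fibroblast toxicity by fluorescence reporter. Geldanamycin plus fluconazole served as positive control; a Saccharomyces assay assigned mechanism to Hsp90, calcineurin or other pathways.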

Plasma protein binding = conditions: for fraction unbound: human, plasma
[4] = test system: Saccharomyces cerevisiae strain W303-1a; experiment: In vivo inhibition of fungal respiration (growth on glycerol); assay type: cell-based; conditions: glycerol medium, 48 hours
Description: Saccharomyces cerevisiae (S. cerevisiae) strain W303-1a was grown overnight in Yeast-Peptone-Dextrose media, washed, and diluted into Yeast Nitrogen Base media with 2.5% glycerol containing compounds at a range of dilutions.

Aspergillus terreus = Aspergillus terreus susceptibility test (CLSI M38-A2); assay type: cell-based
Description: Aspergillus terreus (A. terreus) susceptibility testing was performed as described in Clinical Laboratory Standards Institute document […]-A2 (CLSI […]-A2) (CLSI. Reference Method for Broth Dilution Antifungal Susceptibility Testing of Filamentous Fungi; Approved Standard-Second Edition. CLSI, 940 West Valley Road, Suite 1400, Wayne, Pa. 19087-1898 USA, 2003).

yeast = target: T1, yeast (Saccharomyces cerevisiae, UniProt P00163); experiment: IC50 values and selectivity of Table 10A (target yeast, anti-target human cytochrome); assay type: biochemical; conditions: for IC50: target is yeast; for Selectivity* (anti-target IC50)/(target IC50): target yeast, anti-target human cytochrome
T1 construct: Mitochondrial membranes were prepared from yeast; endogenous in cells; host or cells: yeast (mitochondrial membranes)
Description: (§1) All measurements were performed in triplicate.

[5] = as above; assay type: biochemical
Description: as §1

[6] = test system: Candida albicans strain CaCi-2; experiment: Cytotoxicity to fluconazole-resistant strain CaCi-2; assay type: cell-based; conditions: combination with fluconazole
[7] = test system: Candida albicans wild-type; experiment: De novo emergence of fluconazole resistance (colonies after six days); assay type: cell-based; conditions: I-97 0.5 μM combined with fluconazole 32 mg/L
Description: Candida albicans wild-type (WT, FIG. 13, top panel) or rip1/rip1 homozygous deletion mutant (rip1 Δ/Δ, FIG. 13, middle panel) were plated on media in the presence of fluconazole (32 mg/L) or in the absence of fluconazole. The emergence of colonies was monitored after six days.

[8] = test system: Candida albicans strain SC5314; experiment: Cytotoxicity to fluconazole-sensitive strain SC5314; assay type: cell-based; conditions: combination with fluconazole
fungus = conditions: cited from earlier work
[9] = read-out: Target Potency (μM) Mean ± S.E.M CaCi-8^a IC50; in the presence of fluconazole

| SMILES | IC50 ([3]; Mus musculus, NIH3T3) [µM] | IC50 (C. albicans CaCi-2) [µM] | solubility (PBS solubility; PBS) [µM] | Plasma Stability (Plasma stability) [%] | IC50 (C. albicans CaCi-8; [9]) [µM] | fraction unbound (Plasma protein binding) | Selectivity* (anti-target IC50)/(target IC50) (yeast) | IC50 [5] [µM] | also measured |
| --- | --- | --- | --- | --- | --- | --- | --- | --- | --- |
| Clc1ccc2c(c1)nnc1nnnn12 [CTBT, 7-chlorotetrazolo[5,1-c]benzo[1,2,4]triazine] |  |  |  |  |  |  |  |  | Concentrations inhibiting growth in the absence of fluconazole [1]: greater than 2.4 μM; MIC when combined with fluconazole [1]: 2.4 µM; Activity in the absence of fluconazole [2]: no activity; MIC when combined with fluconazole [2]: 2.4 µM |
| O=C(O)c1nn(Cc2ccc(Cl)cc2)c2ccccc12 [Compound 100493] | > 6 | > 26 | 516 (≈ 148 µg/mL) | > 99 | > 26 | < 0.01 |  |  |  |
| COC(=O)Cn1c(-c2ccccc2)nc2ccccc21 [Compound 4131200] | > 6 | > 26 | 438 (≈ 117 µg/mL) | 46 | > 26 | 0.05 |  |  |  |
| COc1ccc(-c2n[nH]c3ccccc23)cc1 [Compound 9855970] | > 6 | > 26 | < 1 | 89 | > 26 | 0.02 |  |  |  |
| CCOC(=O)c1nn(Cc2ccc(Cl)cc2)c2ccccc12 [Compound 12312246] | > 6 | > 26 |  | 93 | > 26 | < 0.01 |  |  | solubility (PBS solubility): < 0.1 µM |
| O=C(O)c1c2ccccc2nn1Cc1ccc(Cl)cc1 [Compound 14420592] | > 6 | > 26 | 503 (≈ 144 µg/mL) | 96 | > 26 | < 0.01 |  |  |  |
| CCCNC(=O)Cn1nc(-c2ccccc2)c2cc(Cl)ccc21 [Compound 20877322] | > 6 | > 26 | < 1 | 97 | > 26 | < 0.01 |  |  |  |
| O=C(Cn1nc(-c2ccccc2)c2cc(Cl)ccc21)N1CCOCC1 [Compound 20877381] | > 6 | > 26 | 8 (≈ 2.85 µg/mL) | 99 | > 26 | 0.04 |  |  |  |
| O=C(Cn1nc(C(=O)N2CCCCC2)c2ccccc21)N1CCOCC1 [Compound 46378661] | > 6 | > 26 | 529 (≈ 189 µg/mL) | > 99 | > 26 | 0.48 |  |  |  |
| Cc1nn(S(C)(=O)=O)c2ccccc12 [Compound 46856251] | > 6 | > 26 | 494 (≈ 104 µg/mL) | > 99 | > 26 | 0.37 |  |  |  |
| CCOC(=O)c1c2ccccc2nn1Cc1ccc(Cl)cc1 [Compound 46856252] | > 6 | > 26 | < 1 | 70 | > 26 | < 0.01 |  |  |  |
| FC(F)(F)c1ccc(-c2n[nH]c3ccccc23)cc1 [Compound 49635869] | > 6 | > 26 | < 1 | 79 | > 26 | < 0.01 |  |  |  |
| COC(=O)Cn1nc(I)c2ccccc21 [Compound 49835832] |  |  |  | 1.3 |  |  |  |  | IC50 [3]: 0.53 µM; PBS Solubility (PBS solubility; PBS): 143.5 µM; IC50 (C. albicans CaCi-8; in the presence of fluconazole; read-out: Target Potency (μM) Mean ± S.E.M CaCi-8^a IC50): 18.8 µM; Plasma Protein Binding (Plasma protein binding; % bound in human plasma): 98% |
| COC(=O)Cn1nc(-c2ccccc2)c2cccc(C(F)(F)F)c21 [Compound 49835842] | > 6 | > 26 | < 1 | 50 | > 26 | < 0.01 |  |  |  |
| COC(=O)Cn1nc(-c2cccc(OCc3ccccc3)c2)c2ccccc21 [Compound I-7] |  |  |  |  |  |  |  |  | Inhibitory activity against S. cerevisiae (respiratory growth) [4]: shows inhibitory activity; Inhibitory activity against A. terreus (Aspergillus terreus): shows inhibitory activity |
| COC(=O)Cn1nc(-c2cccc(F)c2)c2ccccc21 [Compound I-71] | 12.9 | > 26 | < 1 | < 1.0 |  | 0.04 | 80 |  | ** CaCi-2 to anti-target fold selectivity ([3]; fibroblast IC50 over CaCi-2 IC50 with fluconazole): 9.1; IC50 (yeast): 0.25 µM |
| c1ccc(-c2nn(Cc3nnco3)c3ccccc23)cc1 [Compound I-74] |  |  |  |  |  |  | 53 | 3 |  |
| CNC(=O)Cn1nc(-c2ccccc2)c2ccccc21 [Compound I-75] |  |  |  |  |  |  |  | > 80 |  |
| COC(=O)Cn1nc(-c2ccsc2)c2ccccc21 [Compound I-77] |  |  |  |  |  |  | 48 | 0.625 |  |

| SMILES | IC50 ([3]; Mus musculus, NIH3T3) [µM] | IC50 (C. albicans CaCi-2) [µM] | solubility (PBS solubility; PBS) [µM] | Plasma Stability (Plasma stability) [%] | IC50 (C. albicans CaCi-8; [9]) [µM] | fraction unbound (Plasma protein binding) | Selectivity* (anti-target IC50)/(target IC50) (yeast) | IC50 [5] [µM] | also measured |
| --- | --- | --- | --- | --- | --- | --- | --- | --- | --- |
| COC(=O)Cn1nc(-c2cccc(OCCCC3CCCCC3)c2)c2ccccc21 [Compound I-78] |  |  |  |  |  |  | 100 | 0.01 |  |
| COC(=O)Cn1nc(-c2cccc(OCCC(C)(C)C)c2)c2ccccc21 [Compound I-79] |  |  |  |  |  |  | 50 | 0.04 |  |
| COC(=O)Cn1nc(-c2ccccc2)c2cccc(C)c21 [Compound I-82] |  |  |  |  |  |  | 40 | 0.125 |  |
| c1ccc(-c2nn(Cc3nn[nH]n3)c3ccccc23)cc1 [Compound I-87] |  |  |  |  |  |  |  | > 160 |  |
| Cc1cc(Cn2nc(-c3ccccc3)c3ccccc32)on1 [Compound I-92] |  |  |  |  |  |  | >5 | 30 |  |
| COC(=O)Cn1nc(-c2ccccc2)c2ccccc21 [Compound I-96] |  |  |  |  |  |  |  | 0.6 |  |
| COC(=O)Cn1nc(-c2cc(C(F)(F)F)ccc2F)c2cccc(C)c21 [Compound I-97] |  |  |  |  |  |  | 200 |  | Effect on CaCi-2 [6]: cytotoxic; Emergence of resistance to fluconazole [7]: prevented the emergence of the resistance to fluconazole; Effect on SC5314 [8]: cytotoxic; IC50 (yeast): 0.004 µM |
| Cc1cccc2c(-c3cc(C(F)(F)F)ccc3F)nn(Cc3nnn(C)n3)c12 [Compound I-99] |  |  |  |  |  |  | 160 | 0.023 |  |
| Cn1nnc(Cn2nc(-c3cc(OCCCC4CCCCC4)ccc3F)c3ccccc32)n1 [Compound I-102] |  |  |  |  |  |  | 16 | 0.046 |  |
| O=C(O)Cn1nc(-c2ccccc2)c2ccccc21 [Compound I-107] |  |  |  |  |  |  |  | > 120 |  |
| Brc1cccnc1Cn1nc(-c2ccccc2)c2ccccc21 [Compound I-113] |  |  |  |  |  |  |  | > 120 |  |
| c1ccc(-c2nn(Cc3cnccn3)c3ccccc23)cc1 [Compound I-115] |  |  |  |  |  |  | 128 | 0.63 |  |
| COC(=O)Cn1nc(-c2cccc(C#N)c2)c2ccccc21 [Compound I-118] |  |  |  |  |  |  | 96 | 1.25 |  |
| COC(=O)Cn1nc(-c2cccc([N+](=O)[O-])c2)c2ccccc21 [Compound I-119] |  |  |  |  |  |  | 160 | 0.5 |  |
| COC(=O)Cn1nc(-c2ccccn2)c2ccccc21 [Compound I-120] |  |  |  |  |  |  |  | 15 |  |
| COC(=O)Cn1nc(-c2cccc(OCc3ccccc3)c2F)c2ccccc21 [Compound I-134] |  |  |  |  |  |  | 20 | 0.2 |  |
| COC(=O)Cn1nc(-c2cc(OCc3ccccc3)ccc2F)c2ccccc21 [Compound I-136] |  |  |  |  |  |  | 8.3 | 0.06 |  |
| COC(=O)Cn1nc(-c2cccc(OCc3ccccc3)c2)c2ccccc21 [Compound I-140] |  |  |  |  |  |  | 8 | 0.4 |  |
| CCCCc1oc2ccccc2c1C(=O)c1cc(I)c(OCCN(CC)CC)c(I)c1 [amiodarone] |  |  |  |  |  |  |  |  | MIC50, single-agent antifungal activity (fungus): 3.1 µM (≈ 2 µg/mL) |
